Data taken from PMC7279002, “Novel 3′-Substituted-1′,2′,4′-Oxadiazole Derivatives of 18βH-Glycyrrhetinic Acid and Their O-Acylated Amidoximes: Synthesis and Evaluation of Antitumor and Anti-Inflammatory Potential In Vitro and In Vivo” (International Journal of Molecular Sciences, 2020).
Read-outs that look alike come from different tables or passages of the source.

Tests used:
[1] = system: HeLa, KB-3-1, HuTu-80, A549, B16 and hFF3 cells; assay: MTT cytotoxicity, summary over the panel of cell lines; format: cell-based
Protocol: (§1) On the first step of the biological evaluation of novel GA derivatives 3a-h, 4a-h, and 5a-h, we analyzed their cytotoxicity in a panel of cultured mammalian cells, including human cervical carcinoma HeLa and KB-3-1, human duodenal carcinoma HuTu-80, human lung adenocarcinoma A549, murine melanoma B16 cell lines, and nontransformed human fibroblasts hFF3. The cells were treated with derivatives for 48 h and cell viability was evaluated by 3-(4, 5-dimethylthiazol-2-yl)-2, 5-diphenyltetrazolium bromide (MTT) assay. Since the studied compounds contain two types of functional groups at position 3-acetoxy- or the hydroxyl-group, 3-acetoxy-GA 1 and GA-Me were used as references. Additionally, hierarchical clustering of cytotoxic data was carried out in order to reveal groups of compounds with similar cytotoxic profiles (Figure 2A).
(§2) Cells were seeded in tetra- or pentaplicates in 96-well plates at a density of 10^4 (tumor cells and […] fibroblasts) or 10^5 (RAW264.7 cells) cells per well. Cells were incubated under standard conditions for 24 h, followed by their treatment with the investigated derivatives (0.5–50 µM) or corresponding concentrations of DMSO (control) for a further 48 h (tumor cells and fibroblasts) or 24 h (RAW264.7 cells). At the end of incubation period, 10 µL of MTT solution was added to the cells (final concentration: 0.5 mg/mL) and plates were incubated for an additional 2 h under standard conditions. Then, the MTT-containing medium was aspirated and formazan crystals formed in living cells were solubilized with 100 µL of DMSO. The absorbance of each well was read at test and reference wavelengths of 570 and 620 nm, respectively, on a Multiscan RC plate reader (Thermo LabSystems, Helsinki, Finland). The IC50 values (the concentration of compounds leading to a decrease of A570 to 50% of A570^control) were calculated by extrapolation of the dose–response curves. […] A heatmap of SI values was constructed by Microsoft Excel 2010.

[2] = system: murine RAW264.7 macrophages; assay: MTT cytotoxicity assay, 24 h; format: cell-based; settings: up to 50 µM
Protocol: as §2

[3] = system: carrageenan-induced paw edema; assay: Carrageenan-induced paw edema; format: in vivo, ICR mice
Protocol: To induce paw edema, ICR mice were injected with 1% carrageenan (50 μL) on the plantar side of the right hind paw. […] Mice were sacrificed 5 h after induction of paw edema. The percent of edema weight in carrageenan-injected compound-treated groups in comparison to that in vehicle-treated control group was calculated according to the formula: % Edema=(M1−M2/M2)^compound/∑n(M1−M2/M2)^vehicle×n×100%, where M1 is the weight of the paw with carrageenan-induced edema; M2 is the weight of the intact paws; compound and vehicle correspond to the compound- and vehicle-treated phlogogen-injected mice, respectively; and n is the number of mice in the control group (n = 9). Furthermore, paw material was collected for subsequent histological analysis.
For histological analysis, the specimens of intact and edema paws from each animal were dehydrated in ascending ethanol and xylol and embedded in HistoMix paraffin (BioVitrum, Russia). Paraffin sections (5 μm) were sliced on a Microm HM 355S microtome (Thermo Fisher Scientific, Waltham, MA, USA) and stained with hematoxylin and eosin. Images were obtained using an Axiostar Plus microscope equipped with an Axiocam MRc5 digital camera (Zeiss, Oberkochen, Germany) at ×100 and ×400 magnifications.

[4] = system: TNFα production by IFN-γ-stimulated RAW264.7 cells; assay: TNF-α production by IFNγ-stimulated macrophages (ELISA); format: cell-based, murine; settings: 10–50 µM, 24 h, IFNγ (20 ng/mL)
Protocol: (§3) RAW264.7 cells were seeded in tetraplicates in 96-well plates at a density of 10^5 cells/well and incubated under standard conditions for 24 h. The cells were treated with murine IFNγ (20 ng/mL) (Gibco, Grand Island, NY, USA) with or without (control) 3d (10–50 µM) for a further 24 h. At the end of the incubation period, the levels of TNF-α and NO in culture medium were measured using murine TNF alpha ELISA (Thermo Scientific, Frederick, MD, USA) and the Griess reagent system (Promega, Madison, WI, USA), respectively, according to manufacturers’ instructions.

[5] = system: NO synthesis by IFN-γ-induced RAW264.7 cells; assay: NO production by IFNγ-stimulated macrophages (Griess); format: cell-based, murine; settings: 10–50 µM, 24 h, IFNγ (20 ng/mL)
Protocol: as §3

[6] = system: carrageenan-induced peritonitis; assay: Carrageenan-induced peritonitis; format: in vivo, ICR mice; settings: i.p. 1 h before carrageenan, 4 h
Protocol: To study the effect of 3d on carrageenan-induced peritonitis, ICR mice were injected with 1% carrageenan (250 μL) intraperitoneally (i.p.). Compound 3d (50 mg/kg), vehicle (10% Tween-80), dexamethasone (1 mg/kg) as a reference anti-inflammatory drug, and saline buffer were administered i.p. 1 h before peritonitis induction. The healthy uninflamed group (control) was injected i.p. by saline. Mice were sacrificed 4 h after carrageenan injection and their peritoneal cavities were washed with 2 mL of heparinized cold saline buffer to obtain peritoneal cells. The peritoneal exudates were collected and the total leukocyte counts were performed with a Neubauer chamber by optical microscopy after diluting the peritoneal fluid with Turk solution (1:20). To determine the differential leukocyte counts (total 100 cells), peritoneal cells were centrifuged and placed onto slides, stained with azur–eosin by Romanovsky–Giemsa and examined by optical microscopy. The results were expressed as the number of total leukocytes (×10^5 cells/mL) and the percentages of subpopulations of neutrophils, lymphocytes, and monocytes.

[7] = system: human lung adenocarcinoma A549; assay: MTT cytotoxicity assay, 48 h; format: cell-based; settings: Homo sapiens, A549; MTT, 48 h
Protocol: as §1
(§4) Human cervical carcinoma HeLa and KB-3-1 cells, human duodenal carcinoma HuTu-80 cells, and human lung adenocarcinoma A549 cells were obtained from the Russian Culture Collection (Institute of Cytology, RAS, St. Petersburg, Russia). Melanoma B16-F10 (hereafter, melanoma B16) cells were obtained from the Cell Culture Bank of the Blokhin National Medical Oncology Research Center (Moscow, Russia). Nonmalignant fibroblasts hFF3 and RAW264.7 macrophages were kindly provided by Dr. Olga A. Koval (Institute of Chemical Biology and Fundamental Medicine, SB RAS, Novosibirsk, Russia) and Prof. Dmitry Kuprash (Engelhardt Institute of Molecular Biology, RAS, Moscow, Russia), respectively. The cells were cultured in DMEM (Sigma-Aldrich Inc., St. Louis, MO, USA) supplemented with 10% (v/v) heat-inactivated fetal bovine serum (FBS) (BioloT, St. Petersburg, Russia) and antibiotic–antimycotic solution (100 U/mL penicillin, 100 µg/mL streptomycin, 0.25 µg/mL amphotericin). […] The cells were incubated at 37 °C in a humidified 5% CO2-containing air atmosphere (hereafter referred to as standard conditions). GA derivatives were dissolved in DMSO (stock solutions: 10 mM) and stored at −20 °C prior to use.
as §2

[8] = system: nontransformed human fibroblasts hFF3; assay: MTT cytotoxicity assay, 48 h; format: cell-based; settings: Homo sapiens, HFF-3, read-out: IC50, µM Fibroblast hFF3
Protocol: as §1, §4, §2

murine melanoma B16 = assay: MTT cytotoxicity assay, 48 h; format: cell-based; settings: Mus musculus; MTT, 48 h
Protocol: as §1, §4, §2

[9] = system: human cervical carcinoma KB-3-1; assay: MTT cytotoxicity assay, 48 h; format: cell-based; settings: Homo sapiens, KB 3-1; MTT, 48 h; read-out: IC50, µM Cervix KB-3-1
Protocol: as §1, §4, §2

[10] = system: human cervical carcinoma HeLa; assay: MTT cytotoxicity assay, 48 h; format: cell-based; settings: Homo sapiens, HeLa; MTT, 48 h; read-out: IC50, µM Cervix HeLa
Protocol: as §1, §4, §2

[11] = system: human duodenal carcinoma HuTu-80; assay: MTT cytotoxicity assay, 48 h; format: cell-based; settings: Homo sapiens, HuTu80; MTT, 48 h; read-out: IC50, µM Duodenum HuTu-80
Protocol: as §1, §4, §2

CC(=O)O[C@H]1CC[C@@]2(C)C(CC[C@]3(C)C2C(=O)C=C2[C@@H]4C[C@@](C)(C(=O)O/N=C(/N)C(C)(C)C)CC[C@]4(C)CC[C@]23C)C1(C)C (some centres unmarked) [Compound 3d]
melting point: 151.6 to 152.3 °C | cytotoxicity in all tested cell lines ([1]; all tested cell lines): nontoxic | IC50 ([1]; median over all tested cell lines, read-out: median IC50): > 50 µM | IC50 ([1]; read-out: IC50 values with respect to all tested cell lines): > 50 µM | cytotoxicity to RAW264.7 macrophages [2]: did not reveal cytotoxicity | histology of footpads ([3]; 50 mg/kg, gastric gavage): substantially reducing leukocyte infiltration in the dermis of the footpads | decrease of the weight of edema compared with vehicle-treated mice ([3]; gastric gavage 1 h before carrageenan, 5 h after induction, 3d 50 mg/kg, indomethacin 20 mg/kg): 1.7 fold | suppression of TNFα production compared to the IFN-γ-stimulated control [4]: 2.2–9.0 times | inhibition of NO synthesis compared with the control [5]: up to 5.3 times | distribution of leukocyte subpopulations in peritoneal fluid [6]: restore leukocyte subtype content to a healthy level | decrease of the total leukocyte number in peritoneal exudates ([6]; 3d 50 mg/kg, dexamethasone 1 mg/kg): 2.7 fold | IC50 [7]: > 50 µM | IC50 [8]: > 50 µM | IC50 (murine melanoma B16): > 50 µM | IC50 [9]: > 50 µM | IC50 [10]: > 50 µM | IC50 [11]: > 50 µM
